“And” between values parts separate entries of the source, which are not always exact repeats. Equal values may be shown once. Read-outs that look alike come from different tables or passages of the source.
How the values were obtained:
in vitro = in vitro ADME, human; conditions: pH 7.4
Experimental: Microsomal stability assays were conducted by Cyprotex Ltd (Macclesfield, UK).
The study of drug stability in the presence of liver microsomes is accepted as a valuable model for permitting rapid prediction of in vivo drug stability (see Kerns & Di, 2008). Microsomal stability studies were performed by Cyprotex Ltd (Macclesfield, UK). […] Microsomes (final protein concentration 0.5 mg/mL), 0.1 M phosphate buffer pH 7.4, and test compound (final concentration 3 μM; diluted from 10 mM stock solution to give a final DMSO concentration of 0.25%) were incubated at 37°C prior to the addition of NADPH (final concentration 1 mM) to initiate the reaction with a final incubation volume of 25 µL. A control incubation was included for each compound tested, where 0.1 M phosphate buffer pH 7.4 was added instead of NADPH. The control compounds testosterone and 7-hydroxycoumarin were included in each experiment and all incubations were performed singularly for each compound. […] Following protein precipitation, the sample supernatants were combined in cassettes of up to 4 compounds and analyzed using standard LC-MS/MS conditions. From a plot of the natural logarithm of the peak area ratio (i.e., the ratio of compound peak area: internal standard peak area) against time, the gradient of the line was determined. Subsequently, half-life and intrinsic clearance were calculated using the equations below: […]

CB1R [1] = molecular target: T1, CB1R (Homo sapiens, UniProt P21554); assay: cell-based; format: cell-based
T1 sequence (P21554 whole entry): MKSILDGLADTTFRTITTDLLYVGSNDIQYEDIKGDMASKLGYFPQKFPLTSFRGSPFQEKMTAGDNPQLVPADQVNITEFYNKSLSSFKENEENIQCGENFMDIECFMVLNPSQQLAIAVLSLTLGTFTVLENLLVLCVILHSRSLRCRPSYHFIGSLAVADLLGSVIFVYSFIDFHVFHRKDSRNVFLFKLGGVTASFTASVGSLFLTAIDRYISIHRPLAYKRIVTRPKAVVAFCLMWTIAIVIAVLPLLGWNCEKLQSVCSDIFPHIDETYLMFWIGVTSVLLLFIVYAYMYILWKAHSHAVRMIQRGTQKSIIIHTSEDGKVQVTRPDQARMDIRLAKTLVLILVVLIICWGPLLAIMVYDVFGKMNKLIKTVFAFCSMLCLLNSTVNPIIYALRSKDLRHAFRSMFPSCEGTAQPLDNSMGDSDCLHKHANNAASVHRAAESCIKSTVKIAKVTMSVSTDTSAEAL
Experimental: The cAMP BRET experiments were performed as previously described. Briefly, hCB1R HEK293 cells were transfected with 5 µg/10 cm dish of the CAMYEL biosensor using polyethylenimine. After 24 h, the cells were plated into white 96-well plates (PerkinElmer) at a density of 60,000 cells/well.
Cyclic AMP accumulation was measured using a DiscoverX HitHunter® cAMP Assay for Small Molecules (DiscoverX, Fremont, CA). hCB1R CHO cells were seeded at a density of 40,000 cells/well in 96-well white plates and grown overnight at 37 °C, 5% CO2 in a humidified incubator. […] Vehicle concentration was 1% DMSO, 0.1% BSA. Following agonist incubation, 15 µl of cAMP antibody reagent and 60 µl of working cAMP detection solution (containing 19 parts cAMP lysis buffer, 5 parts Substrate Reagent 1, 1 part Substrate Reagent 2 and 25 parts of cAMP Solution D) were added to all wells. Assay plates were incubated in the dark for 1 hr at room temperature, followed by addition of 60 µl cAMP solution A to all wells and incubation for 3 hr at room temperature in the dark. Plates were read using a GloMax Discover plate-reader (Promega, Madison, WI).

Dopamine D1 = Dopamine D1 (Homo sapiens, UniProt P21728); assay: SafetyScreen44 panel: Dopamine D1; format: binding; conditions: 1 µM
Dopamine D1, sequence (P21728 whole entry): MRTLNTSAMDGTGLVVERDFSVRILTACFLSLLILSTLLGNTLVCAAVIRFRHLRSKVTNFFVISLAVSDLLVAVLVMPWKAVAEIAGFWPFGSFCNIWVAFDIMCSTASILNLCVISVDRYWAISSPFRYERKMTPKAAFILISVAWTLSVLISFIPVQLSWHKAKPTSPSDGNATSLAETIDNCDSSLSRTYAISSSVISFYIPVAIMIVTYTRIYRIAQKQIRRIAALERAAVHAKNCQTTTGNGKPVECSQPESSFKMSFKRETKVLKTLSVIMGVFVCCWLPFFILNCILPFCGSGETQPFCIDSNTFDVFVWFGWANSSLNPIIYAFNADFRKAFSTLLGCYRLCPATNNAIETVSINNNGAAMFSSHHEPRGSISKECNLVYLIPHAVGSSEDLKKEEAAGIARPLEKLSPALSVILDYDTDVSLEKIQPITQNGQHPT
Experimental: (§1) The screen assesses the selectivity of the compound on a diverse panel of targets that includes GPCRs, drug transporters, ion channels, nuclear receptors, kinases, and other non-kinase enzymes. The screen employs radioligand binding or enzyme assays for these 44 targets.
(§2) For receptor assays, binding was calculated as percent inhibition of the binding of a radioactively labeled ligand specific for each target. For enzyme assays, the inhibition effect was calculated as percent inhibition of control enzyme activity. Tests were performed in duplicate, and results are averages of those two tests. See https://www.eurofinsdiscoveryservices.com.

NMDA = assay: SafetyScreen44 panel: NMDA; format: binding; conditions: 1 µM
Source text: (§3) See https://www.eurofinsdiscoveryservices.com.

5HT1A = molecular target: T2, 5HT1A (Homo sapiens, UniProt P08908); assay: SafetyScreen44 panel: 5HT1A; format: binding; conditions: 1 µM
T2 construct: Eurofins Cerep
T2 sequence (P08908 1-422): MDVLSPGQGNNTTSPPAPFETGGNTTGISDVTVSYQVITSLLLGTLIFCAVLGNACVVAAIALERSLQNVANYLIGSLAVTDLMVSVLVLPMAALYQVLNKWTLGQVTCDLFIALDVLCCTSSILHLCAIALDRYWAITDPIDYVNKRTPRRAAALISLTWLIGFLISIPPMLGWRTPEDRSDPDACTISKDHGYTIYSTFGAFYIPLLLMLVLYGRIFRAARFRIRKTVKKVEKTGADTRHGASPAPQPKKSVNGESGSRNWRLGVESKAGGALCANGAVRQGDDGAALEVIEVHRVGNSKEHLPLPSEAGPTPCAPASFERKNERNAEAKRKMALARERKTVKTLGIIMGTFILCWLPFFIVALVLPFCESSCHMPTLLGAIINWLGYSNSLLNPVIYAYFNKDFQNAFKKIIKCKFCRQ
Experimental: as §1, §2

5HT2A = molecular target: T3, 5HT2A (Homo sapiens, UniProt P28223); assay: SafetyScreen44 panel: 5HT2A; format: binding; conditions: 1 µM
T3 construct: Eurofins Cerep
T3 sequence (P28223 whole entry): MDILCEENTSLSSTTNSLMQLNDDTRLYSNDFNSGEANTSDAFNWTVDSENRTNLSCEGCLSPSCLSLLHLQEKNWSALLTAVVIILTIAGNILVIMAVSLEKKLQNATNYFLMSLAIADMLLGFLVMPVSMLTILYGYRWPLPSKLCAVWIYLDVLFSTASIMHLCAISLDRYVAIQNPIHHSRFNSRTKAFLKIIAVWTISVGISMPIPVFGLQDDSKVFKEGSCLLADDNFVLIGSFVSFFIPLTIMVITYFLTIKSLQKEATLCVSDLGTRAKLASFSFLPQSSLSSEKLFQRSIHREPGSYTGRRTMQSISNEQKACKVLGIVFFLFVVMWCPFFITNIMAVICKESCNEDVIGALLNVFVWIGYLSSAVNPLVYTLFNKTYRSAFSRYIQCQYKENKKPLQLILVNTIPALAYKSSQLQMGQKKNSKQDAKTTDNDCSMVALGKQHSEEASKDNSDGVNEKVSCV
Source text: as §3

5HT3 = molecular target: T4, 5HT3 (Homo sapiens, UniProt P46098); assay: SafetyScreen44 panel: 5HT3; format: binding; conditions: 1 µM
T4 construct: Eurofins Cerep
T4 sequence (P46098 24-478): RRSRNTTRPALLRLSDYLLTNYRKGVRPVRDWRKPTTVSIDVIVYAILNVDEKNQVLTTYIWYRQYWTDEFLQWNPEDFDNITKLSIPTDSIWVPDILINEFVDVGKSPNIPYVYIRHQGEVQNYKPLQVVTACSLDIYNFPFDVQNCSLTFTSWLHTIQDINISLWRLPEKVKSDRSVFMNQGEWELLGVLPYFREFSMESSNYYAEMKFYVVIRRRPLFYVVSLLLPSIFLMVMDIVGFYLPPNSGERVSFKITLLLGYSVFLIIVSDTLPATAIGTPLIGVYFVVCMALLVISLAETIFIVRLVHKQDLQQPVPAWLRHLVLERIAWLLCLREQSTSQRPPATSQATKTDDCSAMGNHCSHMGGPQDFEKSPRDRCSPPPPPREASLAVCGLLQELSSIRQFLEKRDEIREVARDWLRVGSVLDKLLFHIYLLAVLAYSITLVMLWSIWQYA
Experimental: as §1, §2

DATKO mice = assay: Open-field test in DATKO mice; conditions: 10 mg/kg i.p., 30 min before test
CB1R [2] = molecular target: T1, CB1R; assay: cell-based; set-up: beta-galactosidase enzyme fragment (EFC; ProLink by own knowledge); conditions: in the presence of the EC80 of CP55,940 (10 nM)
Experimental: The PathHunter® β-Arrestin assay was conducted by Eurofins Pharma Discovery Services (further details can be found at https://www.eurofinsdiscoveryservices.com).
The PathHunter® β-Arrestin assay was conducted by Eurofins Pharma Discovery Services. The assay monitors the activation of a GPCR in a homogenous, non-imaging assay format using a technology developed by DiscoverX called Enzyme Fragment Complementation (EFC) with β-galactosidase (β-Gal) as the functional reporter. Vehicle concentration was 1% DMSO in these assays.

With `CCc1c(-c2nnc(Nc3ccccc3)o2)[nH]c2ccc(Cl)cc12` [ABM300, 5-(5-chloro-3-ethyl-1H-indol-2-yl)-N-phenyl-1,3,4-oxadiazol-2-amine] the half-life at 3 µM (in vitro; microsomes, human liver microsomal preparations) was 1.82 h, the microsomal CLint at 3 µM (in vitro; human liver microsomes) was 12.7 ± 3.4 µL/min/mg and the IC50 (CB1R [1]) was 379 nM and 355 nM and 380 nM. The “binding to Dopamine D1” value (Dopamine D1) was “did not display any significant binding”, the “binding to NMDA” value (NMDA) was “did not display any significant binding” and the “binding to 5HT1A” value (5HT1A) was “did not display any significant binding”. For the same compound, the “binding to 5HT2A” value (5HT2A) was “did not display any significant binding”, the “binding to 5HT3” value (5HT3) was “did not display any significant binding” and the “dysregulated hyperactivity (total distance traveled)” value (DATKO mice) was “normalized”. The stereotypic movements (DATKO mice) was “normalized”, the vertical exploration (DATKO mice) was “normalized” and the IC50 (CB1R [2]; read-out: IC50, reduction in β-arrestin recruitment) was 49.7 nM and 50 nM. The IC50 (CB1R [2]; read-out: pIC50, reduction in β-arrestin recruitment (converted)) was 49 nM.
